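In this assay, cells in 96-well plates receive the compound at five concentrations for 48 hours. Endpoints are linearly interpolated between the surrounding concentrations. GI50: concentration for 50% inhibition of growth.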 Active and inactive are the calls of the source. No stated cut-off is given here; in the data, active = GI50 up to about 1.1 µM and inactive = higher. Numbered stars: 1 amine (or outer) side, 2 acyl side, 3 side chain; on linkers, the order of the positions; unused ones are H or OH. Square brackets hold non-standard residues; d marks the D form. Peptide text beside a SMILES is read from it. X55 = CC[C@H](C)[C@H](OC(=O)[C@@H](C)[C@@H](CC)N[*:1])C(=O)[*:2]; X31 = C[C@H](N[*:1])C(=O)C(C)(C)C(=O)[*:2]; NMeY = CN[C@@H](Cc1ccc(O)cc1)C(=O)O; NMeL = CN[C@@H](CC(C)C)C(=O)O; NMeV = CN[C@H](C(=O)O)C(C)C
Key:
Test in all cases: NCI tumour cell line growth inhibition, 48 h
RXF 393 = system: RXF 393
SK-MEL-28 = system: SK-MEL-28
OVCAR-5 = system: OVCAR-5
UO-31 = system: UO-31
Hs-578T = system: Hs-578T
MOLT-4 = system: MOLT-4
UACC-257 = system: UACC-257
HCT-116 = system: HCT-116
Malme-3M = system: Malme-3M
CAKI-1 = system: CAKI-1
BT-549 = system: BT-549
HCT-15 = system: HCT-15
HOP-62 = system: HOP-62
T47D = system: T47D
COLO 205 = system: COLO 205
NCI-H226 = system: NCI-H226
NCI/ADR-RES = system: NCI/ADR-RES
UACC-62 = system: UACC-62
SNB-75 = system: SNB-75
NCI-H460 = system: NCI-H460

Structure (SMILES)	GI50 (RXF 393)	GI50 (SK-MEL-28)	GI50 (OVCAR-5)	GI50 (UO-31)	GI50 (Hs-578T)	GI50 (MOLT-4)	GI50 (UACC-257)	GI50 (HCT-116)	GI50 (Malme-3M)	GI50 (CAKI-1)	GI50 (BT-549)	GI50 (HCT-15) [µM]	GI50 (HOP-62)	GI50 (T47D)	GI50 (COLO 205)	GI50 (NCI-H226)	GI50 (NCI/ADR-RES)	GI50 (UACC-62)	GI50 (SNB-75)	GI50 (NCI-H460)
COc1c2c(c3c(c1CCC(=O)O)OC(C)(C)C=C3)OC(C)(C)C=C2	> 100 µM (inactive)	> 100 µM (inactive)	> 100 µM (inactive)	> 100 µM (inactive)	83.8 µM (inactive)	65.9 µM (inactive)	> 100 µM (inactive)	94.8 µM (inactive)	> 100 µM (inactive)	> 100 µM (inactive)	> 100 µM (inactive)	> 100	> 100 µM (inactive)	> 100 µM (inactive)	> 100 µM (inactive)	83.4 µM (inactive)	> 100 µM (inactive)	> 100 µM (inactive)	> 100 µM (inactive)	
O=C(Nc1sccc1S(=O)(=O)c1ccccc1)c1ccccc1		> 100 µM (inactive)	> 100 µM (inactive)	> 100 µM (inactive)	> 100 µM (inactive)	> 100 µM (inactive)	> 100 µM (inactive)	> 100 µM (inactive)	> 100 µM (inactive)	> 100 µM (inactive)	> 100 µM (inactive)	7.16	> 70.5 µM (inactive)	> 100 µM (inactive)	> 88.1 µM (inactive)	> 100 µM (inactive)	> 100 µM (inactive)	> 100 µM (inactive)	> 100 µM (inactive)	> 31.6 µM (inactive)
O=[N+]([O-])/C(Cl)=C(/C(Cl)=C(Cl)Cl)N1CCOCC1	2.61 µM (inactive)	11 µM (inactive)	7.93 µM (inactive)	6.1 µM (inactive)	3.8 µM (inactive)	2.58 µM (inactive)	2.99 µM (inactive)	2.44 µM (inactive)	1.44 µM (inactive)	4.34 µM (inactive)	2.46 µM (inactive)	1.56		2.94 µM (inactive)	2.54 µM (inactive)	16.4 µM (inactive)	3.29 µM (inactive)	1.92 µM (inactive)	4.03 µM (inactive)	4.33 µM (inactive)
N=C(N)NCCCC(NC(=O)OCCCCCCn1ccc(N)nc1=O)C(=O)O (stereo not drawn)	> 100 µM (inactive)	> 100 µM (inactive)	> 100 µM (inactive)	> 100 µM (inactive)	> 100 µM (inactive)	> 100 µM (inactive)	> 100 µM (inactive)	> 100 µM (inactive)		> 100 µM (inactive)	> 100 µM (inactive)	> 100	> 100 µM (inactive)	> 100 µM (inactive)	> 100 µM (inactive)	0.418 µM (active)	4.75 µM (inactive)	> 100 µM (inactive)	> 100 µM (inactive)	> 100 µM (inactive)
CC1CN=C(Nc2cccc(F)c2)S1 (stereo not drawn)	> 100 µM (inactive)	> 100 µM (inactive)	> 100 µM (inactive)	> 100 µM (inactive)	> 100 µM (inactive)		> 100 µM (inactive)	> 100 µM (inactive)	> 100 µM (inactive)	> 100 µM (inactive)	> 100 µM (inactive)	> 100	> 100 µM (inactive)	> 100 µM (inactive)	> 100 µM (inactive)	> 100 µM (inactive)	> 100 µM (inactive)	> 100 µM (inactive)	> 100 µM (inactive)	
Brc1c(C#CCC(c2ccccc2)(c2ccccc2)c2ccccc2)ccc(C#CCC(c2ccccc2)(c2ccccc2)c2ccccc2)c1Br	> 100 µM (inactive)	> 100 µM (inactive)	> 100 µM (inactive)	> 100 µM (inactive)	> 100 µM (inactive)	> 100 µM (inactive)	> 100 µM (inactive)	> 100 µM (inactive)	> 100 µM (inactive)	> 100 µM (inactive)	> 100 µM (inactive)	> 100		> 100 µM (inactive)	> 100 µM (inactive)	> 100 µM (inactive)	> 100 µM (inactive)	> 100 µM (inactive)	> 100 µM (inactive)	> 100 µM (inactive)
CC1=C2NCN(C)N=C2C(C#N)(C#N)C1(C#N)C#N	19.1 µM (inactive)	21.6 µM (inactive)	33.5 µM (inactive)	18.4 µM (inactive)	32.6 µM (inactive)	2.56 µM (inactive)	17 µM (inactive)	23.1 µM (inactive)	20.4 µM (inactive)	5.97 µM (inactive)	21.6 µM (inactive)	21	> 55.2 µM (inactive)	21.7 µM (inactive)	5 µM (inactive)	> 50.7 µM (inactive)	28.6 µM (inactive)	20.8 µM (inactive)	> 51.1 µM (inactive)	
CCCC(=O)NC(Nc1cc(C)ccn1)(C(=O)OCC)C(F)(F)F (stereo not drawn)	> 100 µM (inactive)	> 100 µM (inactive)	> 100 µM (inactive)	> 100 µM (inactive)	> 100 µM (inactive)	> 100 µM (inactive)	> 100 µM (inactive)	> 100 µM (inactive)	> 100 µM (inactive)	> 100 µM (inactive)	> 100 µM (inactive)	> 100	> 100 µM (inactive)	> 100 µM (inactive)	> 100 µM (inactive)	> 100 µM (inactive)	> 100 µM (inactive)	> 100 µM (inactive)	> 100 µM (inactive)	
COc1cc(COC(=O)N2CCCCC2C(=O)O)c([N+](=O)[O-])cc1OC (stereo not drawn)	> 100 µM (inactive)	> 100 µM (inactive)	> 100 µM (inactive)	> 100 µM (inactive)	> 100 µM (inactive)	> 100 µM (inactive)	> 100 µM (inactive)	> 100 µM (inactive)	> 100 µM (inactive)		> 100 µM (inactive)	> 100	> 100 µM (inactive)	> 100 µM (inactive)	> 100 µM (inactive)	> 100 µM (inactive)	> 100 µM (inactive)	> 100 µM (inactive)	> 100 µM (inactive)	> 100 µM (inactive)
CC[C@H](C)[C@@H]1OC(=O)[C@@H](C)[C@@H](CC)NC(=O)[C@H](C)NC(=O)C(C)(C)C(=O)[C@H](C)NC(=O)[C@H](Cc2ccc(OC)cc2)N(C)C(=O)[C@H](C(C)C)N(C)C(=O)CNC(=O)[C@H](CC(C)C)N(C)C(=O)CNC1=O [DOLASTATIN 11] (cyclo(A[X55]G[NMeL]G[NMeV][NMeY](Me)[X31]))	0.0223 µM (active)		0.9 µM (active)	0.169 µM (active)	0.258 µM (active)	0.543 µM (active)	0.0817 µM (active)	0.154 µM (active)	0.13 µM (active)	0.034 µM (active)	0.091 µM (active)	0.67	0.0497 µM (active)	0.448 µM (active)		0.137 µM (active)	0.802 µM (active)	0.0893 µM (active)	0.0847 µM (active)	0.00115 µM (active)

From ChEMBL document CHEMBL1201862, “PubChem BioAssay data set” (2004)
